Results on 25 compounds are retold here after patent US8110570B2, “Modulators of acetyl-coenzyme A carboxylase and methods of use thereof” (Cropsolution, Inc., priority 2008, dated 2012).

Structures are written as SMILES.

Assay [1] has as its target T1, hACC1 (Homo sapiens, UniProt Q13085).
T1 construct: PCR primers were designed for full-length hACC1 and hACC2 using GenBank submissions AY237919 and AJ575592, respectively; His tag (C); made in house; host or cells: baculovirus, Sf9 insect cells
Kind of assay: [14C]bicarbonate incorporation assay, overall ACC activity. It is filed as biochemical. The following applies: recombinant hACC1, overall ACC activity. The procedure: (§1) In vitro IC50 values of human ACC were determined using recombinant enzyme produced by standard procedures. For example, full-length cDNAs for both the human isoforms (hACC1 and hACC2) were each cloned and expressed as a recombinant protein using a baculovirus system. Double stranded cDNA from human fetal liver (Quick-Clone cDNA, cat. #7171-1) was purchased from BD/Clontech (Mt. View, Calif.). PCR primers were designed for full-length hACC1 and hACC2 using GenBank submissions AY237919 and AJ575592, respectively. The Advantage GC 2 PCR kit (BD/Clontech) was used for amplification. The PCR products (about 7 Kb) were TOPO-cloned into the pCR4Blunt vector (Invitrogen, Carlsbad, Calif.), and 6 clones of each gene were isolated. […] Full length versions of the two cDNAs corresponding to their respective Genbank sequences were assembled in pBluescript SK+ (Stratagene, La Jolla, Calif.) by combining error-free fragments from the PCR clones. The resulting hACC1 clone, designated pCS35, has six silent nucleotide differences compared to Genbank accession AY237919. The final hACC2 clone, designated pCS36, has ten silent nucleotide differences compared to Genbank accession AJ575592. Primers were designed to PCR amplify the cDNAs along with the in-frame 3′-his tag sequences from the pET vector and TOPO-cloned the resulting products into the Gateway® entry vector pENTR/D-TOPO. The ACC2 primers were designed to delete amino acids 1-148 and add Met-Gly in front of Lys149 in the final product. The resulting entry clones were transferred to BaculoDirect™ linear DNA (Invitrogen corp.) using the Gateway® LR recombination reaction. The recombinant baculovirus DNA was transfected into insect cells and viral amplification was performed according to the manufacturer's protocols. For protein expression sf9 cells were infected with a P3 viral stock in the presence of 50 uM biotin. The cells were harvested after 48-72 hr, lysed by sonication, and the resulting extract was clarified by centrifugation. ACC in the crude extract was concentrated by ammonium sulfate precipitation (40% w/v) and purified by Ni^2+-NTA chromatography (Novagen) followed by anion exchange chromatography on a UNO-Q column (BioRad).
(§2) Overall ACC activity in the hACC preparations is measured by following incorporation of [^14C]bicarbonate into […] essentially as described (Thumpy and Wakil, J Biol Chem 260, 6318-6323 (1985). Briefly, the reaction mixture (50 μL) contains: 50 mM Hepes (pH7.4), 20 mM K-Citrate, 20 mM Mg-Acetate 1.5 mM MgSO4, 2 mM DTT, 2 mM acetyl-CoA, 12 mM NaHCO3, 0.2 mM NaH^14CO3 (˜50 mCi/mmol), 0.01% (v/v) Triton X-100, 0.75 mg/mL BSA, 1% (v/v) DMSO (with or without inhibitor), and 0.3 μg (hACC1) or 0.15 μg (hACC2) enzyme. Reactions are initiated by the addition of ATP to a final concentration 2 mM. After 10 minutes at 37° C., the reaction is stopped by the addition of 2N HCl (50 μL). The samples are evaporated in a hood overnight, resuspended in H2O (200 μL), and incorporated label is quantified by scintillation counting in scintillation cocktail (3 mL). Inhibition data are fit to dose-response curves and IC50 values are reported (i.e. the concentration of inhibitor that gives 50% inhibition).

Assay [2] relates to A2780 human ovary cancer cells. Kind of assay: MTT Cell Proliferation Assay. It is filed as cell-based. The following applies: 72 hours, read-out: Percent of Control A2780. The procedure:
(§3) The anti-proliferative activity of test compounds against human tumor cell lines is evaluated in vitro using the ATCC's MTT Cell Proliferation Assay (Catalog No. 30-100K). Cell lines are grown using media, serum, and culture conditions recommended by the ATCC. Stock cultures are allowed to grow to 70-80% confluence. Cells are seeded into 96-well culture plates at a predetermined density on day 0 in complete medium (0.1 mL). Plates are placed in a humidified incubator at 37° C. with 5% CO2 and 95% HEPA filtered room air for 24 hours. At this point compound (0.1 mL of 2× stock (in media)) is added to the indicated wells and the plates are returned to the incubator for 72 hours. Cell proliferation is measured by addition of MTT reagent to each well and incubated for an additional 4 hours, followed by addition of cell lysis/MTT solublization reagent and incubating overnight. […] Results are expressed as percent of control cells versus compound concentration. Compounds of the present invention, and salts thereof, were evaluated for anti-proliferative activity as described above.

Assay [3] deals with HCT-116 human colon cancer cells. Briefly: MTT Cell Proliferation Assay. It is filed as cell-based. The following applies: 72 hours, read-out: Percent of Control HCT-116. The procedure:
as §3

Assay [4] has as its system MDA-MB-231 human breast cancer cells. Kind of assay: MTT Cell Proliferation Assay. It is filed as cell-based. To be noted: 72 hours, read-out: Percent of Control MDA-MB-231. The procedure:
as §3

Assay [5] concerns PC-3 human prostate cancer cells. Kind of assay: MTT Cell Proliferation Assay. It is filed as cell-based. To be noted: 72 hours, read-out: Percent of Control PC-3. The procedure:
as §3

Assay [6] concerns the target T2, hACC2 (Homo sapiens, UniProt O00763).
T2 construct: delete amino acids 1-148 and add Met-Gly in front of Lys149 in the final product; His tag (C); made in house; host or cells: baculovirus, Sf9 insect cells
Briefly: [14C]bicarbonate incorporation assay, overall ACC activity. The following applies: recombinant hACC2, overall ACC activity. It is filed as biochemical. The procedure:
as §1, §2

T2 sequence (O00763 149-2458 limits assumed): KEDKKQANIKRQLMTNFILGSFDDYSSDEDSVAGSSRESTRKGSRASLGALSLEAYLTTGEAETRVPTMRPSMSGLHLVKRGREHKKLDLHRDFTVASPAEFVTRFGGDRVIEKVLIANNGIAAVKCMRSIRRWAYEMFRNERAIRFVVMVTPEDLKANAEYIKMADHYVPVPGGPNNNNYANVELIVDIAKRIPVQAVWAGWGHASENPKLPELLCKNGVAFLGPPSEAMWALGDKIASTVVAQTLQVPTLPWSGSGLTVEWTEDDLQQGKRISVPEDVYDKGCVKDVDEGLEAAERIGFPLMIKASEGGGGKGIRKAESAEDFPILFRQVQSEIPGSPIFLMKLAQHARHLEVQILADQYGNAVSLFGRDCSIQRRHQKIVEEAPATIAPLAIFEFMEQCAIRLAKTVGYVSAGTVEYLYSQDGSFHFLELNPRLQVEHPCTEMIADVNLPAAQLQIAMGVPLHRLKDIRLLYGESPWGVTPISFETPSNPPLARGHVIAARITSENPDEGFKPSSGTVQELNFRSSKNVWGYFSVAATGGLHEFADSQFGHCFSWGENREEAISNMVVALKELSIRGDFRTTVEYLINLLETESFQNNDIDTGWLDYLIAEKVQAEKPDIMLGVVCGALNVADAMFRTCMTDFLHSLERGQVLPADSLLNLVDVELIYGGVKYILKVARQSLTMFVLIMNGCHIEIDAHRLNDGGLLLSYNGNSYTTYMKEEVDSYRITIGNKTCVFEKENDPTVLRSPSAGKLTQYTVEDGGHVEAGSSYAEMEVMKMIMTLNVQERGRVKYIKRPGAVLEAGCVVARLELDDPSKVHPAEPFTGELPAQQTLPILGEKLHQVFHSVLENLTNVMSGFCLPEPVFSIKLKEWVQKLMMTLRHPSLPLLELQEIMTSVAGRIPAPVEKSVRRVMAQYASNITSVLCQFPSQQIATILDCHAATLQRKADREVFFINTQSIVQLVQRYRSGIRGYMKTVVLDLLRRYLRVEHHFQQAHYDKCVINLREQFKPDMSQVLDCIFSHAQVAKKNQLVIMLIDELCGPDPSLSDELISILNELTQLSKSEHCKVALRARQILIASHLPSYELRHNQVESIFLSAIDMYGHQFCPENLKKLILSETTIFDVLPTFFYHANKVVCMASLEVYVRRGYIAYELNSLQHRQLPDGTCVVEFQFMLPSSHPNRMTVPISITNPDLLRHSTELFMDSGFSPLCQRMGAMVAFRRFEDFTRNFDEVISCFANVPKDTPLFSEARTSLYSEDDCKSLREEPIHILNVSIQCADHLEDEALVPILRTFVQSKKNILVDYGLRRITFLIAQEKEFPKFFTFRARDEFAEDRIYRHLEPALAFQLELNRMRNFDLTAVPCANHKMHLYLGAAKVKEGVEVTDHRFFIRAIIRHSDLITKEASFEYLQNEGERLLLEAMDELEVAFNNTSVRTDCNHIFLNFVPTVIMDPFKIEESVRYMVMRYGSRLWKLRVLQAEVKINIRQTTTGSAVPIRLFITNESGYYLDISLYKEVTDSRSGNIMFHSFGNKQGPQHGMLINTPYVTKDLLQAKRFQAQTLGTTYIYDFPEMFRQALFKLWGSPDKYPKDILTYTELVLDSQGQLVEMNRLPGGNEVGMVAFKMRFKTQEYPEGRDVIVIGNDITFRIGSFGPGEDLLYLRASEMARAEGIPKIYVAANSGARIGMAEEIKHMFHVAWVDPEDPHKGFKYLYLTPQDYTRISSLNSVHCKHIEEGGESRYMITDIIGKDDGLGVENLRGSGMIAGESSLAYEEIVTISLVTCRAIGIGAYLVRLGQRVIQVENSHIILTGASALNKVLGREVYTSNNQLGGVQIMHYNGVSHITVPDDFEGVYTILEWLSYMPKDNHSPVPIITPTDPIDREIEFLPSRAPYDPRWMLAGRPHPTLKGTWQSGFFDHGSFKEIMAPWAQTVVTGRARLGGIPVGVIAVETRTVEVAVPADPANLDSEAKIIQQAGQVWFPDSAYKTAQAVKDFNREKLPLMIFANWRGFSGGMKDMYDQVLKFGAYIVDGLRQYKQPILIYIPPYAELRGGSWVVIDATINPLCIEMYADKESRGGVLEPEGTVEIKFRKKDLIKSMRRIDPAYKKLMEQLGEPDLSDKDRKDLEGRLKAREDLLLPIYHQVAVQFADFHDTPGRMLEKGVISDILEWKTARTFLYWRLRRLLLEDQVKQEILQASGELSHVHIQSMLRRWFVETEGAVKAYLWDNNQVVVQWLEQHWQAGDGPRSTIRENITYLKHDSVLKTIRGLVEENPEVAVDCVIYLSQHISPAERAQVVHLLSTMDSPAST

With `COc1ccc2c(c1)C(=O)NC1(CCN(C(=O)c3cc(OC)c4cccc(OC)c4c3)CC1)N2` [Compound 187], the IC50 in assay [1] came to 87 nM. The activity at 3.3 µM in assay [2] (3.3 uM) came out at 102%; in assay [3] (3.3 uM) it was 71%; in assay [4] (3.3 uM), 80.8%; in assay [5] (3.3 uM) it was 69.9%. In addition, the activity at 10 µM is 64.9% in assay [2] (10.0 uM), 56.1% in assay [3] (10.0 uM), 45.6% in assay [4] (10.0 uM) and 52.2% in assay [5] (10.0 uM).

Take `COc1cc2c(OC)cccc2cc1C(=O)N1CCC2(CC1)NC(=O)c1cc(Cl)ccc1O2` [Compound 131, 6-Chloro-1′-[(3,5-dimethoxynaphth-2-yl)carbonyl]spiro[2H-1,3-benzoxazin-2,4′-piperidin]-4-(3H)-one]: the 50% inhibitory concentration (IC50) in assay [1] was found to be 1900 nM; in assay [6], 450 nM.

Turning to `COc1cc(C(=O)N2CCC3(CC2)NC(=O)c2cc(Br)ccc2N3)nc2c(C(C)C)cccc12` [Compound 91], the IC50 in assay [1] was 2000 nM; in assay [6], 3700 nM.

In the case of `O=C1NC2(CCN(C(=O)c3ccc4[nH]cnc4c3)CC2)Oc2ccc(Br)cc21` [Compound 109, 1′-[(1H-benzimidazol-5-yl)carbonyl]-6-bromospiro[2H-1,3-benzoxazin-2,4′-piperidin]-4-(3H)-one], the half-maximal inhibitory concentration (IC50) in assay [1] was found to be 600 nM; in assay [6] it was 2900 nM.

In the case of `COc1cc2c(OC)cccc2cc1C(=O)N1CCC2(CC1)Oc1ccc(Br)cc1C(=O)N2C` [Compound 138, 6-Bromo-1′-[(3,5-dimethoxynaphth-2-yl)carbonyl]-3-methylspiro[2H-1,3-benzoxazin-2,4′-piperidin]-4-(3H)-one], the 50% inhibitory concentration (IC50) is 1200 nM in assay [1] and 880 nM in assay [6].

Consider `COc1cc(C(=O)N2CCC3(CC2)NC(=O)c2cc(OC(C)C)ccc2O3)cc2[nH]ncc12` [Compound 230], for which the concentration for half-maximal inhibition (IC50) in assay [1] was 110 nM; in assay [6], 85 nM.

Consider `CCOc1ccc2c(c1)C(=O)NC1(CCN(C(=O)c3cc(OC)c4cccc(SC)c4n3)CC1)O2` [Compound 149], for which the half-maximal inhibitory concentration (IC50) turned out to be 35 nM in assay [1] and 25 nM in assay [6].

Regarding `COc1ccc(OC)c2[nH]c(C(=O)N3CCC4(CC3)NC(=O)c3cc(Br)ccc3O4)cc12` [Compound 16], the 50% inhibitory concentration (IC50) in assay [1] was 260 nM; in assay [6] it was 200 nM.

As for `COc1cc(C(=O)N2CCC3(CC2)NC(=O)c2cc(C(C)C)ccc2O3)cc2[nH]ncc12` [Compound 231], the IC50 was 47 nM in assay [1] and 33 nM in assay [6].

For the compound `O=C1NC2(CCN(C(=O)c3cccc(-c4cc[nH]n4)c3)CC2)Oc2ccc(Br)cc21` [Compound 103, 6-Bromo-1′-[3-(1H-pyrazol-3-yl)benzoyl]spiro[2H-1,3-benzoxazin-2,4′-piperidin]-4-(3H)-one], the IC50 was determined as 1300 nM in assay [1] and 700 nM in assay [6].

Regarding `COc1cc(C(=O)N2CCC3(CC2)NC(=O)c2cc4ccccc4cc2O3)nc2c(OC)cccc12` [Compound 159], the IC50 in assay [1] worked out at 4 nM; in assay [6] it was 5 nM.

Regarding `COc1ccc2c(c1)C(=O)NC1(CCN(C(=O)c3cc(OC)c4cccc(SC)c4n3)CC1)O2` [Compound 157], the values for the IC50 in assay [1] and in assay [6] were 33 nM and 48 nM, respectively.

For the compound `COc1cc(C(=O)N2CCC3(CC2)NC(=O)c2cc(C)c(C)cc2O3)nc2c(OC)cccc12` [Compound 153], the half-maximal inhibitory concentration (IC50) worked out at 35 nM in assay [1] and 16 nM in assay [6].

Consider `COc1cc(C(=O)N2CCC3(CC2)NC(=O)c2cc(Br)ccc2N3)nc2c(OC)cccc12` [Compound 71, 6′-Bromo-1-[(4,8-dimethoxyquinoline-2-yl)carbonyl]spiro[piperidine-4,2′(1′H)-quinazolin]-4′-(3′H)-one], for which the half-maximal inhibitory concentration (IC50) amounted to 1000 nM in assay [1] and 490 nM in assay [6].

As for `COc1cc(C(=O)N2CCC3(CC2)NC(=O)c2cc(Br)ccc2O3)nc2c(SC)cccc12` [Compound 133], the IC50 in assay [1] came to 140 nM; in assay [6], 110 nM.

Take `O=C1NC2(CCN(C(=O)c3ccc4[nH]nnc4c3)CC2)Oc2ccc(Br)cc21` [Compound 110, 1′-[(1H-benzotriazol-5-yl)carbonyl]-6-bromospiro[2H-1,3-benzoxazin-2,4′-piperidin]-4-(3H)-one]: the IC50 in assay [1] is 6700 nM; in assay [6], 4600 nM.

For `COc1cc(C(=O)N2CCC3(CC2)NC(=O)c2cc(NC(C)=O)ccc2O3)nc2c(SC)cccc12` [Compound 136], the values for the 50% inhibitory concentration (IC50) in assay [1] and in assay [6] were 75 nM and 55 nM, respectively.

As for `COc1ccc(OC)c2[nH]c(C(=O)N3CCC4(CC3)NC(=O)c3cc(NC(C)=O)ccc3O4)cc12` [Compound 17], the IC50 in assay [1] amounted to 260 nM; in assay [6], 310 nM.

On to `COc1cc(C(=O)N2CCC3(CC2)NC(=O)c2cc(C)ccc2O3)nc2c(OC)cccc12` [Compound 137], for which the figures for the IC50 in assay [1] and in assay [6] were 67 nM and 29 nM, respectively.

For `COc1cc(C(=O)N2CCC3(CC2)NC(=O)c2cc(Cl)ccc2O3)cc2c(OC)cccc12` [Compound 171], the IC50 in assay [1] stood at 28 nM; in assay [6] it was 14 nM.

On to `COc1cc(C(=O)N2CCC3(CC2)NC(=O)c2cc(C)ccc2O3)nc2c(SC)cccc12` [Compound 148], for which the IC50 in assay [1] was found to be 88 nM; in assay [6], 66 nM.

`COc1cccc2ccc(C(=O)N3CCC4(CC3)NC(=O)c3cc(Br)ccc3O4)nc12` [Compound 44]: the 50% inhibitory concentration (IC50) in assay [1] amounted to 740 nM; in assay [6] it was 490 nM.

For `COc1cccc2c(C)c(C(=O)N3CCC4(CC3)NC(=O)c3cc(NC(C)=O)ccc3O4)[nH]c12` [Compound 24], the IC50 came to 100 nM in assay [1] and 77 nM in assay [6].

On to `COc1cc(C(=O)N2CCC3(CC2)NC(=O)c2cc(NC(C)=O)ccc2O3)nc2c(OC)cccc12` [Compound 9], for which the IC50 in assay [1] came out at 92 nM; in assay [6] it was 56 nM.

Consider `COc1cc(C(=O)N2CCC3(CC2)NC(=O)c2cc(C)c(C)cc2O3)nc2c(SC)cccc12` [Compound 154], for which the values for the 50% inhibitory concentration (IC50) in assay [1] and in assay [6] were 30 nM and 27 nM, respectively.

As usually defined, the IC50 is the concentration at which inhibition is half-maximal.
